Assay [1] has as its system PRMT5 (histone H4 Arg3 SDMA levels in MDA-MB-468 cells). Description: In vitro assay 2: quantification of SDMA (symmetric dimethylarginine) expression levels (H4 Arg3) in cancer cells, High-Content Analysis. The format is cell-based. To be noted: Homo sapiens, 72 h, SDMA histone H4 (Arg3) average signal intensity per cell. The source says: In Vitro Assay 2: Quantification of SDMA (Symmetric Dimethylarginine) Expression Levels (H4 Arg3) After Small Molecule Treatment of Cancer Cells
The SDMA-assay based on High-Content Analysis (HCA) enables the biological characterization of compounds inhibiting PRMT5. By this assay, substances are benchmarked on their cellular activity to modulate histone H4 Arg3 levels over broad inhibitor concentration ranges.
Cultivated cells of the human mammary gland tumor cell line MDA-MB-468 (ATCC HTB-132) were plated at a density of 2500 cells per well in a 384-well microtiter plate in 20 μL of Roswell Park Memorial Institute (RPMI) 1640 medium supplemented with 1% (v/v) glutamine, 1% (v/v) penicillin, 1% (v/v) streptomycin and 10% (v/v) fetal calf serum. After pre-incubation at 37° C. overnight, test compo unds solubilized in DMSO were added at various concentrations (0 μM, as well as in the range of 0.005 μM-30 μM; the final concentration of the solvent DMSO was 0.5% (v/v)). Cells were incubated at 37° C. for 72 h in the presence of test compounds. Thereafter, cells were fixed with 4% (v/v) paraformaldehyde in phosphate buffered saline (PBS) at room temperature for 1 h, permeabilized using 0.5% (v/v) Triton X™ 100 in PBS for 15 min and blocked with 1% (v/v) bovine serum albumin (BSA) in PBS for 30 min. In the following, cells were incubated with anti-dimethyl-histone H4 (Arg3) symmetric antibody (Millipore #07-947) at RT for 2 h. After a single washing step with blocking solution, cells were incubated with species-specific fluorescent conjugated secondary antibody Alexa Fluor™ 488 (Jackson Immuno Research #111-546-003) at RT for 2 h.
Image acquisition for cells was carried out using the confocal imaging system OPERA® (PerkinElmer). Images were captured using two channels: Hoechst 33342 stain (DNA) and Alexa Fluor™ 488 (SDMA staining); and were analyzed using the MetaXpress® software (Molecular Devices). Exposure times were chosen for individual experiments to prevent saturation and allow for quantification in the linear range. A minimum of 500 cells in 5 field views were analyzed per well using 10× water immersion objective with a two-fold binning.
The image analysis routine was developed in MetaXpress®. The standardized image-analysis module “Count Nuclei” and the images of the DNA-channel were used for nuclei segmentation. The segmented nuclei were filtered for size, shape and signal intensity to exclude possible apoptotic and non-viable cells along with metaphase nuclei. These phenotypes result in overestimated antibody signals, due to their strong chromatin compaction. For further processing, binary object masks were calculated from the segmented and positively selected nuclei. The binary masks served as templates to be superimposed over the images of the SDMA channel. The SDMA average signal intensity per cell was quantified for every image set. The assay raw data were further analyzed by four parameter logistic regression analysis using Genedata's Assay Analyzer® and Condoseo® software to determine the IC50 value for each tested compound.

Assay [2] concerns the target T1, PRMT5:MEP50 protein complex (Homo sapiens, UniProt O14744).
T1 construct: FLAG (N); made in house; host or cells: Hi5 insect cells
Description: In vitro assay 1: PRMT5 SPA assay ("EAA"). It is filed as biochemical. To be noted: scintillation proximity assay, methylation of biotinylated H4(1-24) peptide, 3H-SAM, 60 min at 22° C. The text has this:
In Vitro Assay 1: PRMT5 SPA Assay (“EAA”)
PRMT5 inhibitory activities of the compounds described in the present invention were quantified using a scintillation proximity assay (SPA) which measures methylation by the enzyme of a synthetic, biotinylated peptide corresponding to the N-terminal sequence of Histone H4 (a.a. 1-24). The peptide of sequence […]-K(Btn)-amide is commercially available (e.g. from Biosyntan) and will be herein referred to as H4(1-24). The PRMT5:MEP50 protein complex used in the assay was produced in house following standard protocols. Briefly, full length PRMT5 and MEP50 constructs respectively tagged with N-terminal FLAG and 6× His sequences were co-expressed in Hi5 insect cells, and the recombinant protein complex was purified by FLAG affinity and size exclusion chromatography.
In a typical assay 11 different concentrations of each compound (0.1 nM, 0.33 nM, 1.1 nM, 3.8 nM, 13 nM, 44 nM, 0.15 μM, 0.51 μM, 1.7 μM, 5.9 μM and 20 μM) were tested in duplicate within the same microtiter plate. To this end, 100-fold concentrated compound solutions (in DMSO) were previously prepared by serial dilution (1:3.4) of 2 mM stocks in a clear low volume 384-well source microtiter plate (Greiner Bio-One), from which 50 nl of compounds were transferred into a white low volume test microtiter plate from the same supplier. Subsequently, 2.5 μL PRMT5 in aqueous assay buffer [20 mM Bicine pH 8.0 (Alfa Aesar), 7.5 mM Tris(2-carboxyethyl) phosphine hydrochloride (TCEP, Sigma), 0.1% (w/v) bovine gamma globuline (BGG, Sigma), 0.002% (v/v) Tween-20 (Sigma)] were added to the compounds in the test plate to a final enzyme concentration of—typically—7.5 nM (this parameter was adjusted depending on the activity of the enzyme lot in order to be within the linear dynamic range of the assay). The samples were then incubated for 15 min at 22° C. to allow pre-equilibration of the putative enzyme-inhibitor complexes before the start of the methylation reaction, which was initiated by the addition of 2.5 μL 2-fold concentrated solution (in assay buffer) of “cold” S-Adenosyl-L-Methionine (SAM, Sigma, final concentration: 0.5 μM), tritiated 3H-SAM (Perkin Elmer, final concentration: 0.5 μM) and H4(1-24) peptide substrate (final concentration: 0.06 μM). The resulting mixture (5 μL final volume) was shortly centrifuged (2 min., 1500 rpm) and incubated at 22° C. during 60 min. Thereupon the reaction was stopped by adding 3 μL of Streptavidin PS SPA imaging beads (Perkin Elmer, final concentration of 0.375 μg/μL) and “cold” SAM (AK Scientific, 250 μM final concentration) for non-specific binding reduction. Plates containing the stopped reaction were sealed with transparent adhesive foil (Perkin Elmer), centrifuged (2 min., 1500 rpm), and further incubated either 1 h at 22° C. or overnight at 4° C. in order to allow the SPA signals to develop. Subsequently, the amount of product was evaluated by measuring the energy transfer from the β-particles emitted by the 3H-labeled substrate to the Europium scintillator co-polymerized in the polystyrene matrix of the PS imaging beads, using the standard settings for this purpose of a Viewlux (Perkin-Elmer) CCD plate imaging device (emission filter 613/55 (IFP).
The resulting scintillation counts were taken as indicator for the amount of methylated peptide per well. The data were normalised using two sets of control wells (typically 16 each) for high—(=enzyme reaction with DMSO instead of test compound=0%=minimum inhibition) and low—(=all assay components without enzyme=100%=maximum inhibition) PRMT5 activity. IC50 values were calculated by fitting the normalized inhibition data to a 4-parameter logistic equation using the “Screener” analysis software from Genedata.

T1 sequence (O14744 whole entry, species assumed): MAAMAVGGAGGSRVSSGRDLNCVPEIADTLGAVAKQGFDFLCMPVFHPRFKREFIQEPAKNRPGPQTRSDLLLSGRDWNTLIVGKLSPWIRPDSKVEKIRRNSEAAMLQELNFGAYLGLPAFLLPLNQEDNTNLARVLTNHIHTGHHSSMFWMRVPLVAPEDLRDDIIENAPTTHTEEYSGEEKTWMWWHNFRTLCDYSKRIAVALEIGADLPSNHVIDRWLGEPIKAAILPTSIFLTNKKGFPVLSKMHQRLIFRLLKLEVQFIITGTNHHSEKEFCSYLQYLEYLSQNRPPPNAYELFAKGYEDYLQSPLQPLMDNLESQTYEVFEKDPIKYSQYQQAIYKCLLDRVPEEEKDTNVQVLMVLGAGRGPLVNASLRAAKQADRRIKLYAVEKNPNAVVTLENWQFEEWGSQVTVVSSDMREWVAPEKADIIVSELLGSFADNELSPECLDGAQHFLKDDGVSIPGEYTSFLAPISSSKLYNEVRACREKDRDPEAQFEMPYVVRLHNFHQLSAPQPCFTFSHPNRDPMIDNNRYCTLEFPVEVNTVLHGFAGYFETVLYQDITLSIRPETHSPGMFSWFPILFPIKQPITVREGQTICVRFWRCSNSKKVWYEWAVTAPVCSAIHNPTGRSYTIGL
T1 sequence (Q9BQA1 whole entry partner, species assumed): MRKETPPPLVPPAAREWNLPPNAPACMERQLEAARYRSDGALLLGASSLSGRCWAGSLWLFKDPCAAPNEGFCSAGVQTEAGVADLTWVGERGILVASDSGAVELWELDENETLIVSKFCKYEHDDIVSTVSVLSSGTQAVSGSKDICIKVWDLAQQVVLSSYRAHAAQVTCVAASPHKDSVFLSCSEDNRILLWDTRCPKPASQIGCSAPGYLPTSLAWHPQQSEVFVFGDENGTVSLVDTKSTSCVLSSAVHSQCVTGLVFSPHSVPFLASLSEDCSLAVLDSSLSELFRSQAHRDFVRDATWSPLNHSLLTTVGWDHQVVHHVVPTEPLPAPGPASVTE

A word on the IC50: it is the concentration that gives 50% inhibition. Higher therefore signals lower potency. Turning to `CC(C)(C)c1cc(NC(=O)c2csc(Nc3ccc(Cl)cc3)n2)n[nH]1` [Example 12, N-(5-tert-Butyl-1H-pyrazol-3-yl)-2-[(4-chlorophenyl)amino]-1,3-thiazole-4-carboxamide], the IC50 in assay [1] stood at 22100 nM; in assay [2] it was 295 nM.

For the molecule `O=C(Nc1ccon1)c1csc(Nc2ccc(Cl)cc2)n1` [Example 19, 2-[(4-Chlorophenyl)amino]-N-(1,2-oxazol-3-yl)-1,3-thiazole-4-carboxamide], the IC50 in assay [1] is not below 30000 nM; in assay [2], 775 nM.

Turning to `CC(C)(C)c1cc(NC(=O)c2csc(Nc3ccc([N+](=O)[O-])cc3)n2)no1` [Example 13, N-(5-tert-Butyl-1,2-oxazol-3-yl)-2-[(4-nitrophenyl)amino]-1,3-thiazole-4-carboxamide], the IC50 in assay [1] was found to be 26100 nM; in assay [2], 344 nM.

`O=C(Nc1cc(C2CC2)n[nH]1)c1csc(Nc2ccc(Cl)cc2)n1` [Example 5, 2-[(4-Chlorophenyl)amino]-N-(3-cyclopropyl-1H-pyrazol-5-yl)-1,3-thiazole-4-carboxamide]: the IC50 is not below 30000 nM in assay [1] and 113 nM in assay [2].

In the case of `Cc1cc(NC(=O)c2csc(Nc3ccc(Cl)cc3)n2)no1` [Example 20, 2-[(4-Chlorophenyl)amino]-N-(5-methyl-1,2-oxazol-3-yl)-1,3-thiazole-4-carboxamide], the values for the IC50 in assay [1] and in assay [2] were not below 30000 nM and 971 nM, respectively.

For `O=C(Nc1nc2ccccc2s1)c1csc(Nc2ccc(Cl)cc2)n1` [Example 8, N-(1,3-Benzothiazol-2-yl)-2-[(4-chlorophenyl)amino]-1,3-thiazole-4-carboxamide], the figures for the IC50 in assay [1] and in assay [2] were not below 30000 nM and 111 nM, respectively.

Consider `Cn1nc(NC(=O)c2csc(Nc3ccccc3)n2)cc1C(F)(F)F` [Example 10, N-[1-Methyl-5-(trifluoromethyl)-1H-pyrazol-3-yl]-2-(phenylamino)-1,3-thiazole-4-carboxamide], for which the IC50 worked out at 27900 nM in assay [1] and 238 nM in assay [2].

Consider `Cn1ccc(NC(=O)c2csc(Nc3ccccc3)n2)n1` [Example 23, N-(1-Methyl-1H-pyrazol-3-yl)-2-(phenylamino)-1,3-thiazole-4-carboxamide], for which the figures for the IC50 in assay [1] and in assay [2] were 23200 nM and 1610 nM, respectively.

For `CC(C)(C)c1cc(NC(=O)c2csc(Nc3ccccc3)n2)no1` [Example 3, N-(5-tert-Butyl-1,2-oxazol-3-yl)-2-(phenylamino)-1,3-thiazole-4-carboxamide], the IC50 in assay [1] is 25400 nM; in assay [2], 177 nM.

These data come from US20200123147A1, “THIAZOLE COMPOUNDS USEFUL AS PRMT5 INHIBITORS” (Bayer Aktiengesellschaft, priority 2017, published 2020).
